The record followed here is PubChem BioAssay AID256 (DTP/NCI, 2004).

The subject of the experiment is CD2F1 mice, L1210 leukemia ip, survival T/C. The experiment can be described thus: NCI In Vivo Anticancer Drug Screen. Data for tumor model L1210 Leukemia (intraperitoneal) in CD2F1 (CDF1) mice. To be noted: higher = longer survival. The method in brief:
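Tumor-bearing mice (transplanted tumor) were split into treated and vehicle control groups, and the measured endpoint of each treated group was divided by that of its vehicle controls.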

[1] abbreviates: endpoint: mean survival time, dose: 12.5 mg/kg/injection, schedule: Q01DX009 (ip), vehicle: saline with Tween-80.
[2] abbreviates: endpoint: mean survival time, dose: 50.0 mg/kg/injection, schedule: Q01DX009 (ip), vehicle: saline with Tween-80.
The mark [3] stands for this setting: endpoint: mean survival time, dose: 100.0 mg/kg/injection, schedule: Q01DX009 (ip), vehicle: saline with Tween-80.
The mark [4] stands for this setting: endpoint: mean survival time, dose: 25.0 mg/kg/injection, schedule: Q01DX009 (ip), vehicle: saline with Tween-80.
The mark [5] stands for this setting: endpoint: mean survival time, dose: 100.0 mg/kg/injection, schedule: Q01DX001 (ip), vehicle: saline with Tween-80.
The mark [6] stands for this setting: endpoint: mean survival time, dose: 200.0 mg/kg/injection, schedule: Q01DX001 (ip), vehicle: saline with Tween-80.
The mark [7] stands for this setting: endpoint: mean survival time, dose: 400.0 mg/kg/injection, schedule: Q01DX001 (ip), vehicle: saline with Tween-80.
[8] abbreviates: endpoint: mean survival time, dose: 200.0 mg/kg/injection, schedule: Q01DX009 (ip), vehicle: saline with Tween-80.
The mark [9] stands for this setting: endpoint: mean survival time, dose: 400.0 mg/kg/injection, schedule: Q01DX009 (ip), vehicle: saline with Tween-80.

“And” between values parts separate entries of the source, which are not always exact repeats. Equal values may be shown once. Toxic doses and inconclusive results are not listed.

For the molecule `COc1ccc(S(=O)(=O)N/N=C/C(=O)O)cc1`, the T/C (endpoint: mean survival time, dose: 6.25 mg/kg/injection, schedule: Q01DX009 (ip), vehicle: saline with Tween-80) was 115 % of control; the T/C (endpoint: mean survival time, dose: 12.5 mg/kg/injection, schedule: Q01DX009 (ip), vehicle: alkali diluted with water) is 114 % of control; the T/C under setting [1] was 121 % of control; the T/C (endpoint: mean survival time, dose: 12.5 mg/kg/injection, schedule: Q04DX003 (ip), vehicle: other) was 109 % of control; the T/C (endpoint: mean survival time, dose: 25.0 mg/kg/injection, schedule: Q01DX009 (ip), vehicle: alkali diluted with water) is 116 % of control; the T/C (endpoint: mean survival time, dose: 25.0 mg/kg/injection, schedule: Q04DX003 (ip), vehicle: other) is 117 % of control. The T/C is, setting by setting: (endpoint: mean survival time, dose: 50.0 mg/kg/injection, schedule: Q01DX009 (ip), vehicle: alkali diluted with water) 124 % of control; under setting [2], 163 % of control; (endpoint: mean survival time, dose: 50.0 mg/kg/injection, schedule: Q04DX003 (ip), vehicle: other) 124 % of control; under setting [3], 151 % of control; (endpoint: mean survival time, dose: 100.0 mg/kg/injection, schedule: Q04DX003 (ip), vehicle: other) 154 % of control; (endpoint: mean survival time, dose: 200.0 mg/kg/injection, schedule: Q01DX009 (ip), vehicle: alkali diluted with water) 153 % of control. The T/C (endpoint: mean survival time, dose: 200.0 mg/kg/injection, schedule: Q04DX003 (ip), vehicle: other) was 155 % of control and 163 % of control and 203 % of control; the T/C (endpoint: median survival time, dose: 12.5 mg/kg/injection, schedule: Q01DX009 (oral), vehicle: saline with Tween-80) was 105 % of control; the T/C (endpoint: median survival time, dose: 25.0 mg/kg/injection, schedule: Q01DX009 (oral), vehicle: saline with Tween-80) is 105 % of control; the T/C (endpoint: median survival time, dose: 50.0 mg/kg/injection, schedule: Q01DX009 (oral), vehicle: saline with Tween-80) was 103 % of control; the T/C (endpoint: median survival time, dose: 100.0 mg/kg/injection, schedule: Q01DX009 (oral), vehicle: saline with Tween-80) was 95 % of control; the T/C (endpoint: median survival time, dose: 200.0 mg/kg/injection, schedule: Q01DX009 (oral), vehicle: saline with Tween-80) is 98 % of control. Also, the T/C (endpoint: median survival time, dose: 400.0 mg/kg/injection, schedule: Q01DX009 (oral), vehicle: saline with Tween-80) was 105 % of control.
For `O=c1[nH]cnc2nn(C3OC(CO)C(O)C3O)nc12` (stereo unspecified), the T/C reads like this: (endpoint: median survival time, dose: 12.5 mg/kg/injection, schedule: Q01DX005 (ip), vehicle: saline) 94 % of control; (endpoint: median survival time, dose: 25.0 mg/kg/injection, schedule: Q01DX005 (ip), vehicle: saline) 94 % of control; (endpoint: median survival time, dose: 50.0 mg/kg/injection, schedule: Q01DX005 (ip), vehicle: saline) 91 % of control; (endpoint: median survival time, dose: 100.0 mg/kg/injection, schedule: Q01DX005 (ip), vehicle: saline) 97 % of control and 103 % of control; (endpoint: median survival time, dose: 200.0 mg/kg/injection, schedule: Q01DX005 (ip), vehicle: saline) 101 % of control and 107 % of control; (endpoint: median survival time, dose: 400.0 mg/kg/injection, schedule: Q01DX005 (ip), vehicle: saline) 103 % of control.
On to `O=C(O)Cc1ccc(Cl)cc1[N+](=O)[O-]`, for which the T/C reads like this: (endpoint: mean survival time, dose: 100.0 mg/kg/injection, schedule: Q01DX001 (ip), vehicle: other) 113 % of control; (endpoint: mean survival time, dose: 200.0 mg/kg/injection, schedule: Q01DX001 (ip), vehicle: other) 107 % of control; (endpoint: mean survival time, dose: 400.0 mg/kg/injection, schedule: Q01DX001 (ip), vehicle: other) 98 % of control.
`Cc1cc(N)c(C)c(C)c1O`: the T/C is, setting by setting: under setting [4], 90 % of control; under setting [2], 98 % of control; under setting [3], 88 % of control.
As to `CN(N=O)C(=O)NC1C(CO)OC(n2ccc(N)nc2=O)C1O` (stereo unspecified), the T/C is 101 % of control (endpoint: mean survival time, dose: 12.5 mg/kg/injection, schedule: Q01DX001 (ip), vehicle: saline with Tween-80); 110 % of control (endpoint: mean survival time, dose: 25.0 mg/kg/injection, schedule: Q01DX001 (ip), vehicle: saline with Tween-80); 98 % of control (endpoint: mean survival time, dose: 50.0 mg/kg/injection, schedule: Q01DX001 (ip), vehicle: saline with Tween-80); 98 % of control under setting [5]; 103 % of control under setting [6]; 108 % of control under setting [7].
With `N#CCCC(C#N)(c1cccnc1)N1CCOCC1` (stereo unspecified), the T/C (endpoint: mean survival time, dose: 12.5 mg/kg/injection, schedule: Q01DX009 (ip), vehicle: Klucel (hydroxypropylcellulose) (HPC)) is 93 % of control; the T/C (endpoint: mean survival time, dose: 25.0 mg/kg/injection, schedule: Q01DX009 (ip), vehicle: Klucel (hydroxypropylcellulose) (HPC)) is 97 % of control; the T/C (endpoint: mean survival time, dose: 25.0 mg/kg/injection, schedule: Q04DX002 (ip), vehicle: saline with Tween-80) was 109 % of control.
Turning to `CC1=C/C(=N\N=C2/C=C(C)CC(C)(C)C2)CC(C)(C)C1`, the T/C by setting is: (endpoint: mean survival time, dose: 100.0 mg/kg/injection, schedule: Q04DX003 (ip), vehicle: Klucel (hydroxypropylcellulose) (HPC)) 93 % of control; (endpoint: mean survival time, dose: 200.0 mg/kg/injection, schedule: Q04DX003 (ip), vehicle: Klucel (hydroxypropylcellulose) (HPC)) 91 % of control; (endpoint: mean survival time, dose: 400.0 mg/kg/injection, schedule: Q04DX003 (ip), vehicle: Klucel (hydroxypropylcellulose) (HPC)) 89 % of control.
As for `COc1cccc2c1C(=O)c1c(O)c3c(c(O)c1C2=O)C[C@@](O)(C(=O)CO)C[C@@H]3OC1CC(N)CC(C)O1` (stereo partly specified), the T/C is, setting by setting: (endpoint: median survival time, dose: 0.75 mg/kg/injection, schedule: Q01DX009 (ip), vehicle: water) 154 % of control; (endpoint: median survival time, dose: 1.5 mg/kg/injection, schedule: Q01DX009 (ip), vehicle: water) 200 % of control; (endpoint: median survival time, dose: 3.0 mg/kg/injection, schedule: Q01DX009 (ip), vehicle: water) 108 % of control.
Take `NCCNCC(=O)O`: the T/C by setting is: (endpoint: mean survival time, dose: 100.0 mg/kg/injection, schedule: Q04DX003 (ip), vehicle: saline) 97 % of control; (endpoint: mean survival time, dose: 200.0 mg/kg/injection, schedule: Q04DX003 (ip), vehicle: saline) 93 % of control; (endpoint: mean survival time, dose: 400.0 mg/kg/injection, schedule: Q04DX003 (ip), vehicle: saline) 97 % of control.
For `O/N=C(/Cc1ccccc1)c1ccccc1`, the T/C under setting [5] is 100 % of control, the T/C under setting [6] was 92 % of control and the T/C under setting [7] is 90 % of control.
For `Clc1cccc(-n2ccnc2)c1`, the T/C is, setting by setting: under setting [3], 109 % of control; under setting [8], 113 % of control.
Turning to `CC(C)(SSC(C)(C)C(N)C(=O)O)C(N)C(=O)O` (stereo unspecified), the T/C reads like this: under setting [5], 108 % of control; under setting [3], 94 % of control; under setting [6], 101 % of control; under setting [8], 93 % of control; under setting [7], 109 % of control; under setting [9], 90 % of control.
With `O=P(CCC(O)c1ccccc1)(c1ccccc1)c1ccccc1` (stereo unspecified), the T/C is, setting by setting: under setting [2], 96 % of control; under setting [3], 92 % of control; (endpoint: mean survival time, dose: 100.0 mg/kg/injection, schedule: Q04DX003 (ip), vehicle: saline with Tween-80) 97 % of control; (endpoint: mean survival time, dose: 200.0 mg/kg/injection, schedule: Q04DX003 (ip), vehicle: saline with Tween-80) 87 % of control.
For `CSC(=S)N/N=C/c1ccccc1O`, the T/C is 95 % of control under setting [1]; 100 % of control (endpoint: mean survival time, dose: 12.5 mg/kg/injection, schedule: Q04DX003 (ip), vehicle: saline with Tween-80); 87 % of control under setting [4]; 97 % of control (endpoint: mean survival time, dose: 25.0 mg/kg/injection, schedule: Q04DX003 (ip), vehicle: saline with Tween-80); 95 % of control (endpoint: mean survival time, dose: 50.0 mg/kg/injection, schedule: Q04DX003 (ip), vehicle: saline with Tween-80).
As for `Cc1ccc(P(=S)(c2ccccc2)c2ccc(C)c3ccccc23)c2ccccc12`, the T/C is 97 % of control (endpoint: mean survival time, dose: 100.0 mg/kg/injection, schedule: Q01DX001 (ip), vehicle: saline); 91 % of control (endpoint: mean survival time, dose: 200.0 mg/kg/injection, schedule: Q01DX001 (ip), vehicle: saline); 93 % of control (endpoint: mean survival time, dose: 400.0 mg/kg/injection, schedule: Q01DX001 (ip), vehicle: saline).
For the molecule `CCN(CC)C(=O)CSC#N`, the T/C was 96 % of control (endpoint: mean survival time, dose: 12.5 mg/kg/injection, schedule: Q01DX001 (ip), vehicle: Klucel (hydroxypropylcellulose) (HPC)) and 100 % of control (endpoint: mean survival time, dose: 25.0 mg/kg/injection, schedule: Q01DX001 (ip), vehicle: Klucel (hydroxypropylcellulose) (HPC)).
For the molecule `S=c1cc(-c2ccccc2)ss1`, the T/C runs as follows: under setting [3], 97 % of control; under setting [8], 97 % of control; under setting [9], 98 % of control.
Regarding `CC(=O)NCCSSCCNC(C)=O`, the T/C was 91 % of control (endpoint: mean survival time, dose: 50.0 mg/kg/injection, schedule: Q04DX002 (ip), vehicle: saline with Tween-80); 95 % of control (endpoint: mean survival time, dose: 100.0 mg/kg/injection, schedule: Q04DX002 (ip), vehicle: saline with Tween-80); 88 % of control (endpoint: mean survival time, dose: 200.0 mg/kg/injection, schedule: Q04DX002 (ip), vehicle: saline with Tween-80); 109 % of control (endpoint: mean survival time, dose: 400.0 mg/kg/injection, schedule: Q04DX002 (ip), vehicle: saline with Tween-80).
